Results on 30 compounds are retold here after US8497266B2, “3-(3-pyrimidin-2-ylbenzyl)-1,2,4-triazolo[4,3-b]pyridazine derivatives as MET kinase inhibitors” (Merck Patent GmbH, priority 2008, dated 2013).

Assay [1] addresses T1, Met kinase (Homo sapiens, UniProt P08581). Description: Met kinase inhibition (cell). Type of assay: cell-based.
Target sequence in this assay (P08581 25-1390): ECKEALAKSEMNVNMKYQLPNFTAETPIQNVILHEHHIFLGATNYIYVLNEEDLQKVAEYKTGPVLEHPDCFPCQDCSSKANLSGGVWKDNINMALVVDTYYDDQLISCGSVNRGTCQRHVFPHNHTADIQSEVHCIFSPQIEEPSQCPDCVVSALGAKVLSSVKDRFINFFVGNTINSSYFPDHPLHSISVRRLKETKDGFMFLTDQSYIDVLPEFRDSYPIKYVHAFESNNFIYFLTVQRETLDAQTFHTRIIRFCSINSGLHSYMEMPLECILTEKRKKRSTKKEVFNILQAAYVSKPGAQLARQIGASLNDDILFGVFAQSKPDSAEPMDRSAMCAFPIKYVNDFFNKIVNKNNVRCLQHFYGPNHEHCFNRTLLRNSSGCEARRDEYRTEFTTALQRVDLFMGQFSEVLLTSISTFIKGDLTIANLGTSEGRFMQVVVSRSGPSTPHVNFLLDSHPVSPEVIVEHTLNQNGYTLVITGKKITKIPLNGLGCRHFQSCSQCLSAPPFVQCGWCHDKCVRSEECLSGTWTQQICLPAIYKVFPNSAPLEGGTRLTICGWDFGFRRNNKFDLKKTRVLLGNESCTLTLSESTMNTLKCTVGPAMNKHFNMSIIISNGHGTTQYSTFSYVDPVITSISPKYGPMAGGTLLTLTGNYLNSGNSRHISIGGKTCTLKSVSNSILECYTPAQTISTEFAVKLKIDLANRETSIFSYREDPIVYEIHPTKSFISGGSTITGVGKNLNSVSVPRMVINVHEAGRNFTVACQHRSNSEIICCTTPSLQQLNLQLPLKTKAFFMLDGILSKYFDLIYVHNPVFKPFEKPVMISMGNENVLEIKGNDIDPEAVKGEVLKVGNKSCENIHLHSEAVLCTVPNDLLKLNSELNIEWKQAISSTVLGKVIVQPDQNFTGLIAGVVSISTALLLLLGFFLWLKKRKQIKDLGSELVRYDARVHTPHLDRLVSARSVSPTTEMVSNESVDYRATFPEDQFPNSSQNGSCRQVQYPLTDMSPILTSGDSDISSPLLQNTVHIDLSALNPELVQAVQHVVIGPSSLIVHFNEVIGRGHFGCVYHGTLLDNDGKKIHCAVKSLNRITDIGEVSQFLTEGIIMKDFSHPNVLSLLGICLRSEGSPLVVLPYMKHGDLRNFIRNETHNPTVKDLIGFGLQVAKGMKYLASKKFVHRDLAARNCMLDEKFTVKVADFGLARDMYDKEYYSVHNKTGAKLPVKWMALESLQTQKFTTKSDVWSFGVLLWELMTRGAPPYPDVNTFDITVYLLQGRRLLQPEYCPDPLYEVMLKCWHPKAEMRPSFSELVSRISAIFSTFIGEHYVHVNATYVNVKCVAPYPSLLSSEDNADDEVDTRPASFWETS
The target in assay [2] is T1, Met kinase. Description: Met kinase inhibition, flashplate method (enzyme). Type of assay: biochemical. Details: 6His (N); purchased Upstate 14-526; host or cells: Sf21 insect cells (S. frugiperda), baculovirus. From the text:
According to the manufacturer's data (Met, active, Upstate, catalogue No. 14-526), Met kinase is expressed for the purposes of protein production in insect cells (Sf21; S. frugiperda) and subsequent affinity-chromatographic purification as “N-terminal 6His-tagged” recombinant human protein in a baculovirus expression vector.
The test plates used are 96-well Flashplate® microtitre plates from Perkin Elmer (Cat. No. SMP200). The components of the kinase reaction described below are pipetted into the assay plate. The Met kinase and the substrate poly Ala-Glu-Lys-Tyr, (pAGLT, 6:2:5:1), are incubated for 3 hrs at room temperature with radioactively labelled ^33P-ATP in the presence and absence of test substances in a total volume of 100 μl. The reaction is terminated using 150 μl of a 60 mM EDTA solution. After incubation for a further 30 min at room temperature, the supernatants are filtered off with suction, and the wells are washed three times with 200 μl of 0.9% NaCl solution each time. The measurement of the bound radioactivity is carried out by means of a scintillation measuring instrument (Topcount NXT, Perkin-Elmer).
The full value used is the inhibitor-free kinase reaction. This should be approximately in the range 6000-9000 cpm. The pharmacological zero value used is staurosporin in a final concentration of 0.1 mM. The inhibitory values (IC50) are determined using the RS1_MTS program.
Kinase reaction conditions per well: • 30 μl of assay buffer • 10 μl of substance to be tested in assay buffer with 10% of DMSO • 10 μl of ATP (final concentration 1 μM cold, 0.35 μCi of ^33P-ATP) • 50 μl of Met kinase/substrate mixture in assay buffer; • (10 ng of enzyme/well, 50 ng of pAGLT/well) • Solutions used: • Assay buffer: • 50 mM HEPES • 3 mM magnesium chloride • 3 μM sodium orthovanadate • 3 mM manganese(II) chloride • 1 mM dithiothreitol (DTT) • pH=7.5 (to be set using sodium hydroxide) • Stop solution: • 60 mM Titriplex III (EDTA) • ^33P-ATP: Perkin-Elmer; • Met kinase: Upstate, Cat. No. 14-526, Stock 1 μg/10 μl; spec. activity 954 U/mg; • Poly-Ala-Glu-Lys-Tyr, 6:2:5:1: Sigma Cat. No. P1152 In-Vivo Tests
Target sequence in this assay (P08581 956-1390 limits assumed): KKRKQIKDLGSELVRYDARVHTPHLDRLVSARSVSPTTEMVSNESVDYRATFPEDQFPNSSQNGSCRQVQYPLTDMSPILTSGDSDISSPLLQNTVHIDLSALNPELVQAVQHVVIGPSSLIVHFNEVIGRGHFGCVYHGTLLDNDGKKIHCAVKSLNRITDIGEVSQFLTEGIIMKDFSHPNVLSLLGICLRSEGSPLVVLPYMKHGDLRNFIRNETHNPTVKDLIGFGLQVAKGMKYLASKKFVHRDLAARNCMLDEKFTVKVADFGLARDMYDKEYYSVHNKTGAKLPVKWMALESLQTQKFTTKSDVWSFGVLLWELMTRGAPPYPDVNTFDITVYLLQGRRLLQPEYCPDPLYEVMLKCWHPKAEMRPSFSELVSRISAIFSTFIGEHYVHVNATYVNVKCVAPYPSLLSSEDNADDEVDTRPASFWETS

One may read the IC50 as the midpoint of a concentration-inhibition curve. As to `Cn1cc(-c2ccc3nnc(C4(c5cccc(-c6ncc(Br)cn6)c5)CC4)n3n2)cn1` [Compound A4], the IC50 against Met kinase [1] was 100 to 10000 nM; at Met kinase [2], 1 to 100 nM. Taken in the same sequence, the figures for `Cc1ccc2nnc(Cc3cccc(-c4ncc(Br)cn4)c3)n2n1` [Compound A6] were 100 to 10000 nM and 1 to 100 nM. Taken in the same sequence, the figures for `CC(c1cccc(-c2ncc(-c3cnn(CCN4CCCC4)c3)cn2)c1)c1nnc2ccc(-c3cnn(C)c3)nn12` (stereo not drawn) [Compound A22] were 1 to 100 nM and 1 to 100 nM.

Regarding `Cc1ccc2nnc(C(F)(F)c3cccc(-c4ncc(Br)cn4)c3)n2n1` [Compound A27, 3-{[3-(5-bromopyrimidin-2-yl)phenyl]difluoromethyl}-6-methyl-1,2,4-triazolo[4,3-b]pyridazine], the IC50 on Met kinase [1] and against Met kinase [2] was 1 to 100 nM throughout. `Cn1cc(-c2ccc3nnc(Cc4cccc(-c5ncc(O)cn5)c4)n3n2)cn1` [Compound A30, 2-{3-[6-(1-methyl-1H-pyrazol-4-yl)-1,2,4-triazolo[4,3-b]pyridazin-3-yl-methyl]phenyl}pyrimidin-5-ol] returned a concentration for half-maximal inhibition (IC50) against Met kinase [1] of 100 to 10000 nM.

For the compound `Cc1ccc2nnc(Cc3cccc(-c4ncc(N5CCN(C)CC5)cn4)c3)n2n1` [Compound A17], the half-inhibitory concentration (IC50) against Met kinase [1] and on Met kinase [2] was 1 to 100 nM throughout. Consider `Cc1ccc2nnc(C(F)(F)c3cccc(-c4ncc(OCC5CCN(C)CC5)cn4)c3)n2n1` [Compound A41, 3-(difluoro-{3-[5-(1-methylpiperidin-4-ylmethoxy)pyrimidin-2-yl]phenyl}methyl)-6-methyl-1,2,4-triazolo[4,3-b]pyridazine], for which the IC50 at Met kinase [1] and against Met kinase [2] was 1 to 100 nM each time. In the case of `COCCOc1cnc(-c2cccc(Cc3nnc4ccc(-c5cnn(C)c5)nn34)c2)nc1` [Compound A33, 3-{3-[5-(2-methoxyethoxy)pyrimidin-2-yl]benzyl}-6-(1-methyl-1H-pyrazol-4-yl)-1,2,4-triazolo[4,3-b]pyridazine], the IC50 against Met kinase [1] lay within 100 to 10000 nM. Still for that read-out and setting: the figure for `Cn1cc(-c2ccc3nnc(Cc4cccc(-c5ncc(OCCO)cn5)c4)n3n2)cn1` [Compound A34, 2-(2-{3-[6-(1-methyl-1H-pyrazol-4-yl)-1,2,4-triazolo[4,3-b]pyridazin-3-ylmethyl]-phenyl}pyrimidin-5-yloxy)ethanol] is 1 to 100 nM. Take `Cn1cc(-c2ccc3nnc(C(F)(F)c4cccc(-c5ncc(OCCN6CCOCC6)cn5)c4)n3n2)cn1` [Compound A12, 3-(difluoro-{3-[5-(2-morpholin-4-ylethoxy)pyrimidin-2-yl]-phenyl}methyl)-6-(1-methyl-1H-pyrazol-4-yl)-1,2,4-triazolo[4,3-b]pyridazine]: the IC50 against Met kinase [1] and against Met kinase [2] was 1 to 100 nM each time.

Consider `Cc1ccc2nnc(C(F)(F)c3cccc(-c4ncc(-c5cnn(CCN6CCCC6)c5)cn4)c3)n2n1` [Compound A21], for which the IC50 on Met kinase [1] and on Met kinase [2] was 1 to 100 nM in each case. As for `Cn1cc(-c2ccc3nnc(C4(c5cccc(-c6ncc(-c7cnn(CCN8CCCC8)c7)cn6)c5)CC4)n3n2)cn1` [Compound A8], the IC50 against Met kinase [1] and against Met kinase [2] was 1 to 100 nM each time. Turning to `Cc1ccc2nnc(Cc3cccc(-c4ncc(-c5cnn(CCN6CCCC6)c5)cn4)c3)n2n1` [Compound A9], the 50% inhibitory concentration (IC50) at Met kinase [1] and against Met kinase [2] was 1 to 100 nM in each case. For the compound `N#Cc1cccc(-c2ccc3nnc(Cc4cccc(-c5ncc(Br)cn5)c4)n3n2)c1` [Compound A5, 3-{3-[3-(5-bromopyrimidin-2-yl)benzyl]-1,2,4-triazolo[4,3-b]-pyridazin-6-yl}benzonitrile], the IC50 against Met kinase [1] and at Met kinase [2] was 1 to 100 nM throughout.

The compound `Cn1cc(-c2ccc3nnc(C(F)(F)c4cccc(-c5ncc(OCCO)cn5)c4)n3n2)cn1` [Compound A32, 2-[2-(3-{difluoro-[6-(1-methyl-1H-pyrazol-4-yl)-1,2,4-triazolo[4,3-b]pyridazin-3-yl]methyl}phenyl)pyrimidin-5-yloxy]ethanol] came in with an IC50 against Met kinase [1] of 1 to 100 nM. Same read-out and setting: the figure for `Cn1cc(-c2ccc3nnc(Cc4cccc(-c5ncc(-c6cnn(CCN7CCCC7)c6)cn5)c4)n3n2)cn1` [Compound A2, 6-(1-methyl-1H-pyrazol-4-yl)-3-(3-{5-[1-(2-pyrrolidin-1-yl-ethyl)-1H-pyrazol-4-yl]pyrimidin-2-yl}benzyl)-1,2,4-triazolo[4,3-b]pyridazine] is 1 to 100 nM.

In the case of `N#Cc1cccc(-c2ccc3nnc(C(F)(F)c4cccc(-c5ncc(-c6cnn(CCN7CCCC7)c6)cn5)c4)n3n2)c1` [Compound A19], the IC50 on Met kinase [1] and on Met kinase [2] was 1 to 100 nM each time.

With `Cc1cnc(-c2cccc(Cc3nnc4ccc(-c5cnn(CCO)c5)nn34)c2)nc1` [Compound A44, 2-(4-{3-[3-(5-methyl-pyrimidin-2-yl)benzyl]-1,2,4-triazolo[4,3-b]pyridazin-6-yl}pyrazol-1-yl)ethanol], the IC50 against Met kinase [1] was in the range of 1 to 100 nM. Turning to `N#Cc1cccc(-c2ccc3nnc(C(F)(F)c4cccc(-c5ncc(N6CCNCC6)cn5)c4)n3n2)c1` [Compound A24], the IC50 against Met kinase [1] and at Met kinase [2] was 1 to 100 nM throughout. For the compound `Cc1ccc2nnc(C(F)(F)c3cccc(-c4ncc(N5CCN(C)CC5)cn4)c3)n2n1` [Compound A25], the IC50 against Met kinase [1] and on Met kinase [2] was 1 to 100 nM in each case. As to `CN1CCN(CCOc2cnc(-c3cccc(Cc4nnc5ccc(-c6cnn(C)c6)nn45)c3)nc2)CC1` [Compound A37, 3-(3-{5-[2-(4-methylpiperazin-1-yl)ethoxy]pyrimidin-2-yl}benzyl)-6-(1-methyl-1H-pyrazol-4-yl)-1,2,4-triazolo[4,3-b]pyridazine], the IC50 on Met kinase [1] lay in the range of 1 to 100 nM. On to `CN1CCN(c2cnc(-c3cccc(C(F)(F)c4nnc5ccc(-c6cccc(C#N)c6)nn45)c3)nc2)CC1` [Compound A23], for which the IC50 against Met kinase [1] and on Met kinase [2] was 1 to 100 nM in each case. On to `Cc1ccc2nnc(C(F)(F)c3cccc(-c4ncc(OCCN5CCOCC5)cn4)c3)n2n1` [Compound A28, 3-(difluoro-{3-[5-(2-morpholin-4-ylethoxy)pyrimidin-2-yl]-phenyl}methyl)-6-methyl-1,2,4-triazolo[4,3-b]pyridazine], for which the IC50 on Met kinase [1] fell in the range of 1 to 100 nM. Take `Cn1cc(-c2ccc3nnc(Cc4cccc(-c5ncc(Br)cn5)c4)n3n2)cn1` [Compound A1, 3-[3-(5-bromopyrimidin-2-yl)benzyl]-6-(1-methyl-1H-pyrazol-4-yl)-1,2,4-triazolo[4,3-b]pyridazine]: the IC50 against Met kinase [1] and against Met kinase [2] was 1 to 100 nM in each case.

Regarding `CN1CCN(c2cnc(-c3cccc(Cc4nnc5ccc(-c6cnn(C)c6)nn45)c3)nc2)CC1` [Compound A11, 3-{3-[5-(4-methylpiperazin-1-yl)pyrimidin-2-yl]benzyl}-6-(1-methyl-1H-pyrazol-4-yl)-1,2,4-triazolo[4,3-b]pyridazine], the IC50 against Met kinase [1] and on Met kinase [2] was 1 to 100 nM in each case. In the case of `N#Cc1cccc(-c2ccc3nnc(Cc4cccc(-c5ncc(-c6cnn(CCN7CCCC7)c6)cn5)c4)n3n2)c1` [Compound A20], the IC50 at Met kinase [1] and at Met kinase [2] was 1 to 100 nM each time. Compound `COCCOc1cnc(-c2cccc(C(F)(F)c3nnc4ccc(-c5cnn(C)c5)nn34)c2)nc1` [Compound A31, 3-(difluoro-{3-[5-(2-methoxyethoxy)pyrimidin-2-yl]phenyl}methyl)-6-(1-methyl-1H-pyrazol-4-yl)-1,2,4-triazolo[4,3-b]pyridazine] came in with an IC50 on Met kinase [1] of 1 to 100 nM. Still for that read-out and setting: the figure for `COCCCOc1cnc(-c2cccc(Cc3nnc4ccc(-c5cnn(C)c5)nn34)c2)nc1` [Compound A36, 3-{3-[5-(3-methoxypropoxy)pyrimidin-2-yl]benzyl}-6-(1-methyl-1H-pyrazol-4-yl)-1,2,4-triazolo[4,3-b]pyridazine] is 1 to 100 nM; for `CN1CCC(COc2cnc(-c3cccc(C(F)(F)c4nnc5ccc(-c6cnn(C)c6)nn45)c3)nc2)CC1` [Compound A42, 3-(difluoro-{3-[5-(1-methylpiperidin-4-ylmethoxy)pyrimidin-2-yl]-phenyl}methyl)-6-(1-methyl-1H-pyrazol-4-yl)-1,2,4-triazolo[4,3-b]pyridazine] it is 1 to 100 nM; for `COc1cnc(-c2cccc(Cc3nnc4ccc(-c5cnn(C)c5)nn34)c2)nc1` [Compound A35, 3-[3-(5-methoxypyrimidin-2-yl)benzyl]-6-(1-methyl-1H-pyrazol-4-yl)-1,2,4-triazolo[4,3-b]pyridazine] it is 1 to 100 nM.
